The source of these data is patent US7297676B2, “Thymosin alpha 1 peptide/polymer conjugates” (SciClone Pharmaceuticals, Inc., priority 2001, dated 2007).

Ends that are not written are not given here.

The conditions of series [1]: cited from earlier work.
For series [2] the following is noted: subcutaneously injected; cited from earlier work.
A short description of series [3]: Adverse events observed in the rat studies. Type of series: in vivo. The procedure: In the following examples, which are not intended to be limiting, a continuous infusion of TA1 was evaluated in a cancer therapy model with the use of surgically implanted osmotic minipumps, which deliver fluids at a constant flow rate for 5 days. Rats were given 5-fluorouracil (5-FU) to cause immune suppression, and then treated with injected or infused TA1 8 days later (the nadir of white cell count after 5-FU). Treatment groups, 8 rats each, were: control (minipumps with saline); low dose TA1 (0.2 mg/Kg sc injection; empty minipumps); high dose TA1 (3.5 mg/Kg sc injection; empty minipumps); and high dose infused TA1 (3.5 mg/Kg infused by minipumps). Immune parameters were determined at baseline and 8 days after 5-FU treatment (day 1 of TA1 treatment), and also at 5, 12, 20, and 27 days after TA1 treatment.
8 days after 5-FU treatment, rats were randomly assigned to one of the following groups (n=15): • Control (saline in minipump) • High dose TA1, injected s.c. at 3.5 mg/Kg (with empty minipumps) • Continuous infusion TA1, provided by minipump at 3.5 mg/Kg/5 days

A further series deals with activated T cells, CD25+. Briefly: Example 1: return of activated T cells in 5-FU immune-suppressed rats. In kind it is in vivo, rat. The following applies: one injection, molar equivalent of 200 ug/kg thymosin, compared with Thymosin alpha 1 200 ug/kg. As for the experimental part:
(§1) Rats were injected with 5-fluorouracil (5-FU) to cause immune suppression, then were treated with an injection of thymosin alpha 1 (200 ug/kg) or pegylated thymosin alpha 1 (20,000 MW PEG-Thymosin alpha 1) (the equivalent on a molar basis of 200 ug/kg of thymosin molecules) to determine the effect on immune parameters.

Another series relates to NK activity. Briefly: Example 1: return of NK activity in 5-FU immune-suppressed rats. Type of series: in vivo, rat. The following applies: one injection, molar equivalent of 200 ug/kg thymosin, compared with Thymosin alpha 1 200 ug/kg. The procedure: as §1

On to “Ac-SDAAVDTSSEITTKDLKEKKEVVEEAEN-OH [TA1, Thymosin alpha 1]”, for which the “dose found to be safe for humans” value in series [1] was at most 16 mg/kg body weight/day. The plasma half-life result in series [2] is listed as “about 2 hours”. Also, the adverse events result in series [3] (one rat given both injection 3.5 mg/Kg and continuous infusion of another 3.5 mg/Kg) is recorded as “no obvious adverse events”; in series [3] (rats, doses 15 times higher than usual (in one animal 30 times higher)), “No adverse events were observed”.
For “PEG-Thymosin alpha 1: 20,000 molecular weight PEG conjugated to the N-terminal end of TA1 ({PEG 20 kDa}-SDAAVDTSSEITTKDLKEKKEVVEEAEN; ends and bridges not checked; UniProt P06454 2-29, looked up)”, in the series on activated T cells, CD25+, the “return of activated T cells, CD25+” value is given as “greater”. Moreover, in the series with NK activity, the “return of NK activity (after depression by 5-FU)” value was “greater”.
